From patent US20130281504A1, “Reduction of Microglia-Mediated Neurotoxicity by KCa3.1 Inhibition” (THE REGENTS OF THE UNIVERSITY OF CALIFORNIA, priority 2010, published 2013)

Assays:
Format in all cases: cell-based, mouse
microglia [1] = experiment: Assay for nitric oxide (nitrite) in microglia conditioned medium; settings: for AβO-induced increase of microglia NO production: 5 μM 1400 W, 100 μM L-NIL, FIG. 8A
NFκB = NFκB assay in microglia; settings: AβO, 2 hrs
Description: The detection of cells with active NFκB was performed according to the method described by Franciosi, S., et al.; (2006) J Neurosci 26, 11652-11664. Briefly, microglia were plated as described above and treated with activators for 2 hrs. Cells were fixed and stained with anti-NF-κBp65 antibody (1:250, Chemicon) and with the nuclear dye DAPI.

p38MAPK = p38MAPK phosphorylation in microglia (Western blot); settings: AβO, 30 minutes
Description: Primary microglia cultures derived from newborn C57BL/6J mice were prepared from mixed glia cultures with the “shaking off” method described by Maezawa, I., et al.; (2006) FASEB J 20, 797-799. […] To obtain conditioned medium (CM) for treating neurons, microglia were first cultured in 24-well culture plates at a density of 1.3×10^5 cells/cm^2 for 24 hrs in DMEM with 10% fetal bovine serum (DMEM10). Cultures were washed extensively and changed to the Neurobasal medium with B27 supplement (NB/B27, Invitrogen) without serum and cultured for another 24 hrs. The NB/B27-based microglia CMs were collected, briefly centrifuged, and used immediately or frozen for future uses.
(§1) To obtain lysates, cells or tissues were washed with ice-cold PBS and incubated with a buffer containing 50 mmol/L Tris-HCl (pH 7.4), 150 mmol/L NaCl, 2% SDS, proteinase inhibitor cocktail (Sigma), and phosphatase inhibitor cocktail (Sigma). Lysates were briefly sonncated and cleared by centrifugation at 50,000 rpm for 10 min. Equivalent amounts of protein were analyzed by Tris/HCL gel electrophoresis. Proteins were transferred to polyvinylidene difluoride membranes and probed with antibodies. Visualization was performed using enhanced chemiluminescence (ECL, Amersham Pharmacia, Piscataway, N.J.).
The following primary antibodies (dilutions) were used: anti-p38MAPK (1:1000, Cell Signaling Technology, Boston, Mass.), anti-phospho-p38MAPK (1:1000, Cell Signaling Technology), anti-Synaptophysin (1:1000, Abcam), anti-PSD95 (1:1000, cell signaling), anti-GRIP 1 (1:1000, UpState), anti-MAP2 (1:1000, Chemicon), anti-acetylated α-tubulin (1:2000, Zymed), and anti-β-actin (1:3000, Sigma). Secondary antibodies were HRP-conjugated anti-rabbit, anti-goat, or anti-mouse antibody (1:3000 Amersham).

microglia [2] = experiment: AβO-induced microglia proliferation/activation (cell number); settings: for microglia cell counts, % of solvent-treated controls: mean±S.E
hippocampal neurons [3] = experiment: Viability of cultured hippocampal neurons, direct AβO; settings: direct addition
hippocampal slices = experiment: AβO-treated organotypic hippocampal slice cultures; settings: iNOS inhibitors applied 1 hr prior to AβO; for AβO-induced NO production by hippocampal slices: FIG. 8C; for AβO-induced neuronal damage (PI uptake) in hippocampal slices: FIG. 8D
Description: Hippocampal slice cultures (400 μm-thick) were prepared from 7-day-old C57BL/6J mice as previously described (25) and cultured for 10 days in vitro before use. Neuronal damage in the slices was monitored by PI uptake following Bernardino et al (27). PI itself is not toxic to neurons (27). […] After 24 hrs, the slices were observed under a Nikon Eclipse E600 microscope and the red (630 nm) fluorescence emitted by PI taken up by damaged cells was photographed by a digital camera (SPOT RTke, SPOT Diagnostics, Sterling Heights, Mich.) with fixed exposure time.
For immunofluorescent staining of neurons, cultures were fixed in 4% paraformaldehyde and stained with anti-PSD95 (1:200, Cell Signaling), anti-MAP2 (1:500, Chemicon) and anti-acetylated α-tubulin (1:250, Zymed). For immunofluorescent staining of microglia, cultures or hippocampal slices were fixed in 4% paraformaldehyde and stained with anti-IBA1 (1:500, Wako Chemicals USA), anti-SRA (E-20, 1:200, Santa Cruz Biotechnology), and anti-CD11b (1:200, AbD Serotec USA, Raleigh, N.C.). The fixed cells or hippocampal slices were incubated with antibodies for overnight at 4° C. followed by secondary Alexa488 conjugated anti-mouse or Alexa568 conjugated anti-rabbit antibody (1:700, Molecular probes). Immunostained images were observed under a Nikon Eclipse E600 microscope and photographed by a digital camera (SPOT RTke, SPOT Diagnostics, Sterling Heights, Mich.).
as §1
Conditioned medium collected from microglia cultures (1×10^5/0.75 cm^2) and hippocampal slices treated with Aβ for 24 hrs were analyzed by the Nitric Oxide Quantization Kit according to the protocol of the manufacturer (Active Motif, Carlsbad, Calif.). Data were normalized to the amount of total protein.

hippocampal neurons [4] = experiment: Indirect neurotoxicity of conditioned medium from AβO-treated microglia on hippocampal neurons; settings: microglia co-treated 24 hrs with 1400 W or L-NIL; 25% CM; FIG. 8B
Description: Hippocampal neuronal cultures were prepared from newborn wild type C57BL/6J mice according to the method of Xiang et al (26). Neurons were cultured in NB/B27 at a density of 2.5×10^5 cells/well in 12-well plates or 8×10^5 cells/well in 6-well plates for at least 14 days before they were treated with microglia CM.
Hippocampal neurons were prepared as described above and were plated onto 96-well plate at a density of 6×10^4 cells/well and cultured for 14 days. CM from microglia cultures was added onto neurons with indicated dilutions, and cultures were incubated for 24 hrs.
For immunofluorescent staining of neurons, cultures were fixed in 4% paraformaldehyde and stained with anti-PSD95 (1:200, Cell Signaling), anti-MAP2 (1:500, Chemicon) and anti-acetylated α-tubulin (1:250, Zymed). […] Immunostained images were observed under a Nikon Eclipse E600 microscope and photographed by a digital camera (SPOT RTke, SPOT Diagnostics, Sterling Heights, Mich.).
For quantification of the PSD95-immunoreactive puncta along the dendrites, photomicrographs of PSD95 immunostained cultures were randomly taken from each culture condition. The images were transformed to 8 bit gray scale and analyzed with the Image J program. The number of puncta in each photomicrograph was counted and normalized by dendritic length. The photography and analysis were conducted in an investigator-blinded manner

Q: How did the “increase of NO release per cell” value (microglia [1]; AβO 24 hr, normalized to total cellular protein) turn out when “AβO: synthetic Aβ42 peptide oligomers, microglia activator” was run?
A: Its value is about 80%.

Q: What about the “increase of cells with active NFκB immunoreactivity” value (NFκB) of the same compound?
A: Its value is “six-fold increase”.

Q: And the “phosphorylated p38MAPK, % of vehicle treatment control” value (p38MAPK)?
A: The value was 225±38%.

Q: What about the “AβO concentration at which microglia proliferation maximizes” value (microglia [2]) of the same compound?
A: Its value is “around 50 nM”.

Q: And the “AβO concentration at which microglia proliferation starts” value (microglia [2])?
A: The value was 5 nM.

Q: And the “microglia cell counts, % of solvent-treated controls” value (microglia [2]; 20 nM AβO, 24 hr)?
A: The value was 184±8.59%.

Q: And the “microglia cell counts, % of solvent-treated controls” value (microglia [2]; 20 nM AβO, 48 hr)?
A: Its value is 330±21.8%.

Q: And the “AβO concentrations affecting viability of cultured hippocampal neurons” value (hippocampal neurons [3])?
A: Its value is “above 100 nM”.

Q: With CC(=N)NCc1cccc(CN)c1 [1400 W, N-[(3-aminomethyl)benzyl]acetamidine, reference compound] as the compound, how does the “AβO-induced NO production by hippocampal slices” value (hippocampal slices) read?
A: Its value is “blocked”.

Q: What about the “AβO-induced neuronal damage (PI uptake) in hippocampal slices” value (hippocampal slices) of the same compound?
A: Its value is “blocked”.

Q: And the “AβO-induced increase of microglia NO production” value (microglia [1])?
A: Its value is “prevented”.

Q: What about the “AβO-induced microglial neurotoxicity (neuronal viability)” value (hippocampal neurons [4]) of the same compound?
A: The value was “blocked”.

Q: For Nc1c(/N=N/c2ccc(-c3ccc(/N=N/c4cc(S(=O)(=O)O)c5ccccc5c4N)cc3)cc2)cc(S(=O)(=O)O)c2ccccc12 [Congo red, reference compound], which “AβO mitogenic effect on microglia (cell numbers)” value (microglia [2]; 20 nM AβO, 24 hrs, A11 50 nM, CR 100 nM, FIG. 1D) is on record?
A: Its value is “blocked”.

Q: What about the “microglia activation / mitogenic effect induced by human brain AβO” value (microglia [2]; soluble AD hippocampus extracts) of the same compound?
A: The value was “blocked”.

Q: How did the “AβO-induced NO production by hippocampal slices” value (hippocampal slices) turn out when CC(=N)NCCCC[C@H](N)C(=O)O [L-NIL, N-iminoethyl-Llysine, reference compound] was run?
A: Its value is “blocked”.

Q: And the “AβO-induced neuronal damage (PI uptake) in hippocampal slices” value (hippocampal slices)?
A: Its value is “blocked”.

Q: What about the “AβO-induced increase of microglia NO production” value (microglia [1]) of the same compound?
A: Its value is “prevented”.

Q: What about the “AβO-induced microglial neurotoxicity (neuronal viability)” value (hippocampal neurons [4]) of the same compound?
A: The value was “blocked”.

Q: For “polyinosinic acid [poly I, reference compound]”, which “AβO-induced microglia activation / proliferation” value (microglia [2]; 20 nM AβO 24 hrs, 100 ng/ml poly I, 10 μg/ml E-20, 20 μM doxycycline, 1 μM TRAM-34, FIG. 3) is on record?
A: Its value is “blocked”.
